{"source": "ChEMBL document CHEMBL1129317", "about": "“Novel selective and partial agonists of 5-HT3 receptors. Part 1. Synthesis and biological evaluation of piperazinopyrrolothienopyrazines” (J Med Chem, 1996)", "key": {"[1]": {"biological_target": "5-hydroxytryptamine receptor 1D (Sus scrofa, UniProt P79400)", "sequence (P79400 whole entry)": "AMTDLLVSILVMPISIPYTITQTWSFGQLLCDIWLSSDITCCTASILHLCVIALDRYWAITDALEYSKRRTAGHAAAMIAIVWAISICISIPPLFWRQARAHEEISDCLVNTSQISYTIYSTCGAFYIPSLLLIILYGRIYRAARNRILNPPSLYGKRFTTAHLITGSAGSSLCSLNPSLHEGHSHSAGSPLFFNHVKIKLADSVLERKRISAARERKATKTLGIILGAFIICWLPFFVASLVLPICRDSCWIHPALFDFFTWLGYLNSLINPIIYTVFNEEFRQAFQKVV", "test": "Binding affinity for 5-hydroxytryptamine 1D receptor"}, "[2]": {"biological_target": "T1, 5-hydroxytryptamine receptor 2C (Homo sapiens, UniProt P28335)", "T1 sequence (P28335 whole entry)": "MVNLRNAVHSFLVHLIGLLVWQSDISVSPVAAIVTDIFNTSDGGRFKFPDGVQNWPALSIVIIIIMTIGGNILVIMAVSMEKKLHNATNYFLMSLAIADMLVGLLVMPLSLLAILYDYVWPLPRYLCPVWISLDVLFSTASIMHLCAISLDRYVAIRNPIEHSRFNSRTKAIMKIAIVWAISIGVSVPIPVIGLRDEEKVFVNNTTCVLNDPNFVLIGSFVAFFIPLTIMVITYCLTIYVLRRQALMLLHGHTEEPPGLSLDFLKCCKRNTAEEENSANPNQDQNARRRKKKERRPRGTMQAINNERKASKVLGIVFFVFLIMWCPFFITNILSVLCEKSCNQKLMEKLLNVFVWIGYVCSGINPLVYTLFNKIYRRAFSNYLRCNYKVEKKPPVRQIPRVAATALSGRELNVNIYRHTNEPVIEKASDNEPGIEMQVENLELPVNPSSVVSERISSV", "test": "Binding affinity towards 5-hydroxytryptamine 2C receptor"}, "[3]": {"biological_target": "T2, Serotonin 3 (5-HT3) receptor (Rattus norvegicus, UniProt P35563+Q9JJ16)", "T2 sequence (P35563 whole entry)": "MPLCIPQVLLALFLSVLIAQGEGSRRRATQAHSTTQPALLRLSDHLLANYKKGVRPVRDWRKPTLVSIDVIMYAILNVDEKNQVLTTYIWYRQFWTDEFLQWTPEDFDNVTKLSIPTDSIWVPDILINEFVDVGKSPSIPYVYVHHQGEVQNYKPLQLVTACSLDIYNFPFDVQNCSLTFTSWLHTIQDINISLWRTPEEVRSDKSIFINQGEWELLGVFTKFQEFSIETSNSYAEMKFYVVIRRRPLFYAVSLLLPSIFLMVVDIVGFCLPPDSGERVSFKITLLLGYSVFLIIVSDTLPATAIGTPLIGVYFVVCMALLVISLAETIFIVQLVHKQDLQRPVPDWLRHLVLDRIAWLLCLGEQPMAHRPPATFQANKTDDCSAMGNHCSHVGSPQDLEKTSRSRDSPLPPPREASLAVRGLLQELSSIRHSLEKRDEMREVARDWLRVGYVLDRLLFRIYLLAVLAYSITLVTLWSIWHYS", "T2 sequence (Q9JJ16 whole entry)": "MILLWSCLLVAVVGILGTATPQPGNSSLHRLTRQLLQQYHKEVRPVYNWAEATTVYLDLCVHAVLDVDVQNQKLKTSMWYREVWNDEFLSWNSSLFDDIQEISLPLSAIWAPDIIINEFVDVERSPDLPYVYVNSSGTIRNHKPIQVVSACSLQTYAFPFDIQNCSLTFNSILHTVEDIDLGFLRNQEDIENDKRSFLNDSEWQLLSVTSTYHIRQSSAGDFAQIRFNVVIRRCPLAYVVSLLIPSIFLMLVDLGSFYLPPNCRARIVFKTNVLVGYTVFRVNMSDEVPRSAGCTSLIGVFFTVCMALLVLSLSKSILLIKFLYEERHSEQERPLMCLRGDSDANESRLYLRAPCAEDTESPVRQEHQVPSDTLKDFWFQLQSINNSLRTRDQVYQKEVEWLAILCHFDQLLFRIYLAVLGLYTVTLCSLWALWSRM", "test": "Binding affinity towards 5-hydroxytryptamine 3 receptor", "assay_type": "protein-complex assay"}, "[4]": {"biological_target": "Adenosine A2 receptor (Homo sapiens) (UniProt P29275+P29274)", "test": "Inhibitory activity against Adenosine A2 receptor using [3H]CGS-21680 at […] (M)", "assay_type": "protein assay"}, "[5]": {"test": "Inhibitory activity against Bradykinin receptor using [3H]bradykinin at […] (M)"}, "[6]": {"biological_target": "D(1A) dopamine receptor (Homo sapiens) (UniProt P21728)", "sequence (P21728 whole entry)": "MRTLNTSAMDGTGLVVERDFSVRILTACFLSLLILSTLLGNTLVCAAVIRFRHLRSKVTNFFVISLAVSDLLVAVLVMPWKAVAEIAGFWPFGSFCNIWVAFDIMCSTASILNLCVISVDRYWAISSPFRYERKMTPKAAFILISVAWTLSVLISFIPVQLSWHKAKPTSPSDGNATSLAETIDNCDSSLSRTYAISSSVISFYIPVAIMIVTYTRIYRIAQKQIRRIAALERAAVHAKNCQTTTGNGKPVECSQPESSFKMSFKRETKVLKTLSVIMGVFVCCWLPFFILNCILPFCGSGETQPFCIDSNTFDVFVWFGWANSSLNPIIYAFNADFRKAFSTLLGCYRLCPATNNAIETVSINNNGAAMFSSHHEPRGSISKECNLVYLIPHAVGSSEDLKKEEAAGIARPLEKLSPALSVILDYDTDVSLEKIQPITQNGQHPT", "test": "Inhibitory activity against Dopamine receptor D1 using [3H]SCH-23,390 at […] (M)"}, "[7]": {"test": "Inhibitory activity against Gamma-aminobutyric acid type B receptor using [3H]GABA at 10e-5 M"}, "[8]": {"biological_target": "Interleukin-1 receptor type 1 (Homo sapiens) (UniProt P14778)", "sequence (P14778 whole entry)": "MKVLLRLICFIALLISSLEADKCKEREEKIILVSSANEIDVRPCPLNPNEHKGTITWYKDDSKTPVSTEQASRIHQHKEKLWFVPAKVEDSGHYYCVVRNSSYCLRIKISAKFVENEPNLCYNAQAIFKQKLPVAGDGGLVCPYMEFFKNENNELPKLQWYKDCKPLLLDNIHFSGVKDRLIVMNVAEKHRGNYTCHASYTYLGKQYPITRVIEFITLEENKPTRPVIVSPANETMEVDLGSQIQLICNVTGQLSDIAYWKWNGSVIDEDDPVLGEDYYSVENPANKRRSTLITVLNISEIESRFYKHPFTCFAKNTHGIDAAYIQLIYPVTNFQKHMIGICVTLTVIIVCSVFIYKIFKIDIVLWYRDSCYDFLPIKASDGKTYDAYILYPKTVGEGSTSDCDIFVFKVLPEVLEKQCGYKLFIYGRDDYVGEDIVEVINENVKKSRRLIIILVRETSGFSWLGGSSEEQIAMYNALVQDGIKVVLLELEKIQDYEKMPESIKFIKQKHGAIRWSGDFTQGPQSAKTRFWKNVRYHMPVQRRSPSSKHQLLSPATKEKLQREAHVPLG", "test": "Inhibitory activity against Interleukin 1d using [3H]IL-1-alpha at […] (M)"}, "[9]": {"biological_target": "Glutamate receptor ionotropic kainate (Homo sapiens) (UniProt P39086+Q16478+Q16099+Q13002+Q13003)", "test": "Inhibitory activity against Ionotropic glutamate receptor kainate using [3H]- Kainate at […] (M)", "assay_type": "protein-complex assay"}, "[10]": {"tested_on": "NG108-15", "test": "In vitro effective concentration against [14C]guanidinium uptake into NG 108-15 cells", "assay_type": "functional, cell-based", "settings": "Murinae"}, "[11]": {"biological_target": "Delta-type opioid receptor (Rattus norvegicus) (UniProt P33533)", "sequence (P33533 whole entry)": "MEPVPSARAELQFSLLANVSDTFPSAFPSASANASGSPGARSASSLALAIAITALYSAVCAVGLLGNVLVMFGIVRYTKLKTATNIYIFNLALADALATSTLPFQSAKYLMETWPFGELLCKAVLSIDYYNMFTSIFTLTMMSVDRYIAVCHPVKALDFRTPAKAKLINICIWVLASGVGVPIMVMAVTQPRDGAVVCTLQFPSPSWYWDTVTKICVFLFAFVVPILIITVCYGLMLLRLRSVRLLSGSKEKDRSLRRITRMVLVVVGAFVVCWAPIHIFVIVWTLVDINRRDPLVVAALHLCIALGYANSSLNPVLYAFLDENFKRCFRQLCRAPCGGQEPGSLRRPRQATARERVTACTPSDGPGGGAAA", "test": "Inhibitory activity against Opioid receptor delta 1 using [3H]Cl-phe-DPDPE at 10e-5 (M)"}, "[12]": {"test": "Inhibition of [3H]apamin binding to Potassium channel at 10e-5 M"}, "[13]": {"biological_target": "Glutamate [NMDA] receptor (Homo sapiens) (UniProt Q05586+Q12879+Q13224+O15399+O60391+Q14957+Q8TCU5)", "test": "Inhibitory activity against Phencyclidine receptor using [3H]-TCP at […] (M)", "assay_type": "protein-complex assay"}, "[14]": {"test": "Inhibition of [3H]batrachotoxin binding to sodium channel at 10e-5 M"}, "[15]": {"test": "Inhibition of [3H]batrachotoxin binding to sodium channel at 10e-7 M"}, "[16]": {"biological_target": "Thyrotropin-releasing hormone receptor (Homo sapiens) (UniProt P34981)", "sequence (P34981 whole entry)": "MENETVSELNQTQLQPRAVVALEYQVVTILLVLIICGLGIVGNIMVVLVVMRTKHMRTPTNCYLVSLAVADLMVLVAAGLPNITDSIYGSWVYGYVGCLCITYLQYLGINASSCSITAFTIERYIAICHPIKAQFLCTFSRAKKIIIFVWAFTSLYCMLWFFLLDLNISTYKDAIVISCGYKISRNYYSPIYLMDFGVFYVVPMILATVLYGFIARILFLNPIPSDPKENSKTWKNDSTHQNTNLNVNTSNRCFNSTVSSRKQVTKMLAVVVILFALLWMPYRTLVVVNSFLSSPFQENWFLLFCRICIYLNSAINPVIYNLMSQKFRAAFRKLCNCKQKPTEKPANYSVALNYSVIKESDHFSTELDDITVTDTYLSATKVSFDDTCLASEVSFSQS", "test": "Inhibitory activity against TRH using [3H]TRH at 10e-5 (M)"}, "[17]": {"biological_target": "Thromboxane A2 receptor (Homo sapiens) (UniProt P21731)", "sequence (P21731 whole entry)": "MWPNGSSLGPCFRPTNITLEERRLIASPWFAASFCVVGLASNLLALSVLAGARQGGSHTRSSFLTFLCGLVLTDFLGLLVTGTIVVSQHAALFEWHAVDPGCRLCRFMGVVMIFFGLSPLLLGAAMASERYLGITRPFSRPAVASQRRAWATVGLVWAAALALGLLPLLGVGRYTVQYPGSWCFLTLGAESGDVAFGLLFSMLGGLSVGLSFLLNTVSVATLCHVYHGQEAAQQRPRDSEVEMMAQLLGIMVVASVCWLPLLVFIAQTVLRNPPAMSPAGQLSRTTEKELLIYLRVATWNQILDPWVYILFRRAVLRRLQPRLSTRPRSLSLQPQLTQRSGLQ", "test": "Inhibitory activity against Thromboxane A2 using [3H]SG-29548 at 10e-5 (M)"}, "[18]": {"test": "Inhibitory activity against VIP using [125]VIP at 10e-5 (M)"}, "[19]": {"biological_target": "Cholecystokinin receptor type A (Homo sapiens) (UniProt P32238)", "sequence (P32238 whole entry)": "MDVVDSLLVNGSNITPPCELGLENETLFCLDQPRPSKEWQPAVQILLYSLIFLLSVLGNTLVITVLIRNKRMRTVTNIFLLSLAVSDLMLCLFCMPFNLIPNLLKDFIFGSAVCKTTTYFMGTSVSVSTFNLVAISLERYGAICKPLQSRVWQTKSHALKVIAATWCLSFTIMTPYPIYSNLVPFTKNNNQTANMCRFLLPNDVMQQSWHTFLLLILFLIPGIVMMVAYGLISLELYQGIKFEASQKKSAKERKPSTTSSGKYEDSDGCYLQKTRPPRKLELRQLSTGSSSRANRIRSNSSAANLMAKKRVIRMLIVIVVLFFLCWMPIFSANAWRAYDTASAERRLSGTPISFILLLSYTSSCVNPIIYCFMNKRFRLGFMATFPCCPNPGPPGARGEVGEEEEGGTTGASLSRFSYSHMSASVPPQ", "test": "Inhibitory activity against Cholecystokinin type A receptor using [3H]L-364718 at […] (M)"}}, "data": [{"smiles": "c1ccc(CN2CCN(c3nc4ccsc4n4cccc34)CC2)cc1", "values": [{"measurement": "IC50", "setting": "[1]", "result": 14100, "unit": "nM"}, {"measurement": "IC50", "setting": "[2]", "result": 1860, "unit": "nM"}, {"measurement": "IC50", "setting": "[3]", "result": 1.41, "unit": "nM"}, {"measurement": "inhibition", "setting": "[4]", "result": 4, "unit": "%"}, {"measurement": "inhibition", "setting": "[5]", "result": 28, "unit": "%"}, {"measurement": "inhibition", "setting": "[6]", "result": 14, "unit": "%"}, {"measurement": "inhibition", "setting": "[7]", "result": 40, "unit": "%"}, {"measurement": "inhibition", "setting": "[8]", "result": 1, "unit": "%"}, {"measurement": "inhibition", "setting": "[9]", "result": 12, "unit": "%"}, {"measurement": "EC50", "setting": "[10]", "result": 10, "unit": "nM"}, {"measurement": "inhibition", "setting": "[11]", "result": 14, "unit": "%"}, {"measurement": "inhibition", "setting": "[12]", "result": 6, "unit": "%"}, {"measurement": "inhibition", "setting": "[13]", "result": 10, "unit": "%"}, {"measurement": "inhibition", "setting": "[14]", "result": 79, "unit": "%"}, {"measurement": "inhibition", "setting": "[15]", "result": 28, "unit": "%"}, {"measurement": "inhibition", "setting": "[16]", "result": 12, "unit": "%"}, {"measurement": "inhibition", "setting": "[17]", "result": 32, "unit": "%"}, {"measurement": "inhibition", "setting": "[18]", "result": 6, "unit": "%"}, {"measurement": "inhibition", "setting": "[19]", "result": 7, "unit": "%"}]}]}
